Values quoted from earlier work, collected in patent US20090175934A1, “Extended Release Pharmaceutical Formulation of Venlafaxine and Method of Manufacturing the Same” (Jubilant Organosys Ltd., priority 2006, published 2009).
Where a name gives a salt, the structure may show the parent alone.

How the values were obtained:
patients = settings: plural daily dosing regimen
[1] = compressed tablets, therapeutic dosing

COc1ccc(C(CN(C)C)C2(O)CCCCC2)cc1 (stereo not drawn) [Venlafaxine hydrochloride]
patients experiencing nausea (patients): about forty five percent | patients in whom vomiting occurs (patients): about seventeen percent | time until sub-therapeutic plasma levels are approached following administration [1]: about twelve hours
